Measured values published in US8273340B2, “Methods and compositions for attracting or repelling cockroaches” (The United States of America, as represented by the …, priority 2008, dated 2012).
Marks after values point to notes of the source that are not given here.

Key:
Format in all cases: in vivo
[1] = system: Male cockroaches (Blattela germanica); assay: Y-tube olfactometer bioassay, test compound in mineral oil on filter paper; details: for Percent Response: 0.5% w/v solution in mineral oil, mean of 3 replicates, 65% or more = significantly attractive (*), 35% or less = significantly repellent (**)
From the text: The German cockroach (Blattela germanica) is one of the most difficult cockroach species to control in homes and was used to illustrate the invention. […] Since the cockroaches never contact the test sample, their response is strictly to the molecules in the air stream.
(§1) Olfactometer Bioassay: The Y-tube bioassay apparatus was similar to that described by Vander Meer et al. (J. Chem. Ecol., 14: 825-838 (1988)). Compressed air (breathing-air quality) was passed into the two choice arms at 0.2 l/min for a total flow of 0.4 l/min. Flow rates were adjusted and controlled by two flow meters (Omega Engineering, Inc.). All tubing carrying the air was either copper or Teflon. Prior to evaluating treatment samples, a positive standard was put through the bioassay procedure. […] Test samples (10.0 μl) and the solvent blank (mineral oil, 10.0 μl) were applied to filter paper strips (0.3×1.0 cm, Whatman No. 1) and then each was placed into one of the two choice arms. Male cockroaches (Blattela germanica) were prepared for their introduction into the olfactometer by placing them in a Teflon tube (3 cm×0.8 cm) that had one end blocked with a piece of copper mesh screen. The open end of tube was closed with a lightly attached piece of tape. The cockroaches were introduced individually by removing the tape and quickly inserting the Teflon tube into the entrance arm of the olfactometer. […] The initial choice of the cockroach was recorded. The cockroach was removed and the process was repeated 10 times with the same test and blank samples. The 10 choices usually required less than 5 minutes to complete. After each set of 10 cockroaches had made their choice, the olfactometer was rinsed with acetone, dried, and reassembled for the next test. Each sample was retested with the same cockroaches, but with the sample and control in reverse positions. The sum of the results from the two tests represented one replicate. This procedure minimized bias inherent in the apparatus. A null hypothesis of equal numbers of cockroaches in each arm was tested with chi-square analysis. […] Results in-between were neutral.
The diameter of the Y part of the olfactometer provided a close fit for the cockroach, thus keeping it in the center of the walkway.

[2] = system: Male cockroaches (Blattela germanica); assay: Y-tube olfactometer bioassay of controlled release pellets aged in a fume hood; details: for Percent Response: mean of 3 replicates; for activity in the olfactometer (in words): charcoal as the absorbent, after one hour in the fume hood
From the text: as §1, with “procedure. The standard was initially an attractive food material (grape flavoring concentrate used at 0.33%) and later 0.5% (w/v) methyl tiglate, one of the compounds of the present invention, in white, light mineral oil (Aldrich Chemical Co.).” for “procedure.”
Controlled Release Formulations: Four esters found to be significant cockroach attractants were selected for evaluation in controlled release formulations-developed by BioGuard, Inc. Six controlled release formulations from BioGuard were evaluated in the olfactometer. The attractants were methyl tiglate, butyl hexanoate, propyl propanoate, and butyl heptanoate. The attractants were absorbed to either coconut shell charcoal pellets or potassium substituted crystalline zeolite pellets, and then coated with water soluble methylcellulose. The powdered methyl cellulose was dissolved in 80° C. water until saturation, cooled to approx 25° C., the pellets immersed into the solution for a 30 sec, and removed and rapidly air dried with 30° C. pre-dried air. The end products were pellets (charcoal=2 mm×4 mm dia.; molecular sieve=4 mm×1.5 mm dia.). […] A single pellet was used in place of the filter paper described above. The control side was left blank.

cockroach = assay: Bioassays for cockroach attraction of attractants sorbed into thermoplastic polymers
From the text: To alleviate the reactivity with the carrier polymers, we attempted to load active compounds into a series of thermoplastic polymers including urethanes and synthetic rubbers, based on the behavior of the active compounds as plasticizers. […] Propyl propanoate, methyl hexanoate, and methyl tiglate were loaded into a series of thermoplastic granulated feed materials, including 4-(1,1,3,3-tetramethylbutyl) with ethylene-5-ethylidenebicyclo[2.2.1]hept-2-ene-propene thermoplastic synthetic rubber (Santopren™ 203-40). Santoprene™ is a thermoplastic elastomer (TPE that is a mixture of in-situ cross linking of EPDM rubber and polypropylene compounds). Because of the longer life of Santopren™ in both extreme hot and cold environments, it is often preferred over the use of rubber. Pellethane™ 2102-55D is a polyester polycaprolactone polyurethane. Methyl hexanoate and methyl tiglate were sorbed using heat and pressure (60° C., 40 psi, 30 min) into the Santoprene® and were effective in bioassays for cockroach attraction. […] Loading rates of active compounds into the Santoprene®, using slightly elevated temperature (60° C.) and 40 psi pressure, were 8-12% by wt for the two compounds.

[3] = Charcoal absorbent, methylcellulose coated pellet, aged 1 hour in fume hood
[4] = Molecular Sieve absorbent, methylcellulose coated pellet, aged 1 hour in fume hood
[5] = sorbed into Santoprene (60° C., 40 psi, 30 min)

Compound: CCCOC(=O)CC [Propyl Propanoate]
- Percent Response [1]: 70.0* %
- Percent Response [2, 3]: 65.0%
- Percent Response [2, 4]: 50.0%
- activity in the olfactometer (in words) [2]: significantly active
- effect in bioassays for cockroach attraction (in words) (cockroach; loaded into Dow Pellethane): neither of these systems worked well
- effect in bioassays for cockroach attraction (in words) (cockroach; [5]): neither of these systems worked well

Compound: C/C=C(\C)C(=O)OC [methyl tiglate, methyl ester of tiglic acid (trans-2-methyl-2-butenoic acid (methyl tiglate))]
- Percent Response [1]: 80.0%
- percent of responding cockroaches attracted ([1]; three concentrations (0.25 to 0.75) in mineral oil, N=1, FIG. 8): ≥ 65%
- Percent Response [2, 3]: 76.6%
- Percent Response [2, 4]: 50.0%
- activity in the olfactometer (in words) [2]: significantly active
- Percent Response ([2]; charcoal controlled release formulation, aged 24 hours in fume hood): 66.7%
- Percent Response ([2]; charcoal controlled release formulation, aged 48 hours in fume hood): 61.6%
- effect in bioassays for cockroach attraction (in words) (cockroach; loaded into Dow Pellethane): worked less well
- effect in bioassays for cockroach attraction (in words) (cockroach; [5]): effective
